Test results from patent publication US9650395B2, “Antibacterial compounds and methods for use” (PTC Therapeutics, Inc., priority 2011, dated 2017).
Converted amounts (≈) assume the structure as drawn. Structures can show the parent of a compound that is named as a salt. Where two headings read alike, the source gives them in different places.

How the values were obtained:
[1] = test system: super sensitive Gram-negative Escherichia coli (E. coli) BAS849; experiment: Antibacterial activity, microbroth dilution MIC, E. coli BAS849; format: cell-based; details: Escherichia coli, read-out: MIC, BAS849
[2] = test system: control Gram-negative E. coli 25922 strain; experiment: Antibacterial activity, microbroth dilution MIC, E. coli 25922; format: cell-based, Escherichia coli; details: Escherichia coli; E. coli 25922, microbroth dilution; read-out: MIC, 25922
[3] = test system: Gram-positive Staphylococcus aureus (S. aureus) 29213; experiment: Antibacterial activity, microbroth dilution MIC, S. aureus 29213; format: cell-based; details: Staphylococcus aureus; S. aureus 29213, microbroth dilution; read-out: MIC, 29213
[4] = test system: quinolone resistant E. coli LZ3111; experiment: Antibacterial activity, MIC, quinolone resistant E. coli LZ3111; format: cell-based, Escherichia coli; details: Escherichia coli, read-out: MIC, LZ3111
From the text: (§1) The antibacterial activity from a microbroth dilution method may be presented as the minimum inhibitory concentration (MIC in […]). The MIC value is the lowest concentration of a drug which prevents macroscopically visible bacterial growth under test conditions.
Mutations in these regions are known to confer a high level resistance to the quinolone class of antibiotics.

[5] = test system: E. coli ELZ4000 (MDR clinical isolate); experiment: Antibacterial activity, MIC, MDR E. coli ELZ4000; format: cell-based, Escherichia coli; details: Escherichia coli; E. coli ELZ4000, MDR clinical isolate; read-out: MIC ELZ4000
[6] = test system: E. coli ELZ4251 (MDR clinical isolate); experiment: Antibacterial activity, MIC, MDR E. coli ELZ4251; format: cell-based, Escherichia coli; details: Escherichia coli, E. coli ELZ4251, MDR clinical isolate; read-out: MIC ELZ4251
[7] = test system: Pseudomonas aeruginosa (P. aeruginosa) 27853; experiment: Antibacterial activity, MIC, P. aeruginosa 27853; format: cell-based; details: Pseudomonas aeruginosa, P. aeruginosa 27853; read-out: MIC 27853
From the text: as §1
Antibacterial activity of test compounds against the Gram-negative bacterium Pseudomonas aeruginosa (P. aeruginosa) 27853 is shown in Table 5.

[8] = test system: Haemophilus influenzae (H. influenzae) 49247; experiment: Antibacterial activity, MIC, H. influenzae 49247; format: cell-based; details: Haemophilus influenzae; H. influenzae 49247; read-out: MIC 49247
How it was run: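 Antibacterial activity against the Gram-negative organism Haemophilus influenzae strain 49247 was measured by microbroth dilution. The minimum inhibitory concentration (MIC) was taken as the lowest drug concentration that stopped bacterial growth from being visible to the naked eye under the test conditions.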

[9] = test system: Moraxella catarrhalis (M. catarrhalis) 25238; experiment: Antibacterial activity, MIC, M. catarrhalis 25238; format: cell-based; details: Moraxella catarrhalis, M. catarrhalis 25238; read-out: MIC 25238
[10] = test system: Neisseria meningitidis (N. meningitidis) 13090; experiment: Antibacterial activity, MIC, N. meningitidis 13090; format: cell-based; details: Neisseria meningitidis; N. meningitidis 13090; read-out: MIC 13090
[11] = test system: Acinetobacter baumannii (A. baumannii) BAA747; experiment: Antibacterial activity, MIC, A. baumannii BAA747; format: cell-based; details: Acinetobacter baumannii; A. baumannii BAA747; read-out: MIC BAA747
[12] = E. coli BAS849, microbroth dilution

SMILES	MIC [1, 12] [µg/mL]	MIC [2] [µg/mL]	MIC [3] [µg/mL]	MIC [4] [µg/mL]	MIC [5] [µg/mL]	MIC [6] [µg/mL]	MIC [7] [µg/mL]	MIC [8] [µg/mL]	MIC [9] [µg/mL]	MIC [10] [µg/mL]	MIC [1] [µg/mL]	MIC [11] [µg/mL]
CCc1c(-c2ccc(-n3ccnc3)cc2)[nH]c(=O)c(C(=O)O)c1O [Cpd 107, 5-ethyl-4-hydroxy-6-[4-(1H-imidazol-1-yl)phenyl]-2-oxo-1,2-dihydropyridine-3-carboxylic acid]	1 to 3.5 (≈ 3.07 to 10.8 µM)	12.5 to 150 (≈ 38.4 to 461 µM)	12.5 to 150 (≈ 38.4 to 461 µM)	12.5 to 150 (≈ 38.4 to 461 µM)	12.5 to 150 (≈ 38.4 to 461 µM)	12.5 to 150 (≈ 38.4 to 461 µM)	12.5 to 150 (≈ 38.4 to 461 µM)	< 1	< 1	< 1	–	–
CCc1cc(C(=O)O)c(=O)[nH]c1-c1ccc(N2CCC(N3CCOCC3)C2)cc1.O=C(O)C(F)(F)F (centres unmarked) [Cpd 140, 5-ethyl-6-{4-[3-(morpholin-4-yl)pyrrolidin-1-yl]phenyl}-2-oxo-1,2-dihydropyridine-3-carboxylic acid trifluoroacetate]	–	3.5 to 12.5	12.5 to 150	12.5 to 150	12.5 to 150	12.5 to 150	12.5 to 150	< 1	< 1	< 1	< 1	–
CCc1cc(C(=O)O)c(=O)[nH]c1-c1ccccc1 [Cpd 75, 5-ethyl-2-oxo-6-phenyl-1,2-dihydropyridine-3-carboxylic acid]	1 to 3.5 (≈ 4.11 to 14.4 µM)	12.5 to 150 (≈ 51.4 to 617 µM)	12.5 to 150 (≈ 51.4 to 617 µM)	12.5 to 150 (≈ 51.4 to 617 µM)	12.5 to 150 (≈ 51.4 to 617 µM)	12.5 to 150 (≈ 51.4 to 617 µM)	12.5 to 150 (≈ 51.4 to 617 µM)	–	12.5 to 150 (≈ 51.4 to 617 µM)	–	–	12.5 to 150 (≈ 51.4 to 617 µM)
CCc1cc(C(=O)O)c(=O)[nH]c1-c1ccc(N2CCCCC2)cc1 [Cpd 108, 5-ethyl-2-oxo-6-[4-(piperidin-1-yl)phenyl]-1,2-dihydropyridine-3-carboxylic acid]	< 1	12.5 to 150 (≈ 38.3 to 460 µM)	12.5 to 150 (≈ 38.3 to 460 µM)	12.5 to 150 (≈ 38.3 to 460 µM)	12.5 to 150 (≈ 38.3 to 460 µM)	12.5 to 150 (≈ 38.3 to 460 µM)	12.5 to 150 (≈ 38.3 to 460 µM)	< 1	< 1	< 1	–	–
CCc1cc(C(=O)O)c(=O)[nH]c1-c1ccc(Nc2ccccc2)cc1 [Cpd 155, 5-ethyl-2-oxo-6-[4-(phenylamino)phenyl]-1,2-dihydropyridine-3-carboxylic acid]	< 1	1 to 3.5 (≈ 2.99 to 10.5 µM)	3.5 to 12.5 (≈ 10.5 to 37.4 µM)	12.5 to 150 (≈ 37.4 to 449 µM)	12.5 to 150 (≈ 37.4 to 449 µM)	12.5 to 150 (≈ 37.4 to 449 µM)	12.5 to 150 (≈ 37.4 to 449 µM)	< 1	< 1	< 1	–	–
CN(C)c1ccc(-c2[nH]c(=O)c(C(=O)O)cc2C2CC2)cc1 [Cpd 12, 5-cyclopropyl-6-[4-(dimethylamino)phenyl]-2-oxo-1,2-dihydropyridine-3-carboxylic acid]	< 1	3.5 to 12.5 (≈ 11.7 to 41.9 µM)	12.5 to 150 (≈ 41.9 to 503 µM)	12.5 to 150 (≈ 41.9 to 503 µM)	12.5 to 150 (≈ 41.9 to 503 µM)	12.5 to 150 (≈ 41.9 to 503 µM)	12.5 to 150 (≈ 41.9 to 503 µM)	< 1	< 1	< 1	–	–
CCc1cc(C(=O)O)c(=O)[nH]c1-c1ccc(N2CCOCC2)cc1 [Cpd 110, 5-ethyl-6-[4-(morpholin-4-yl)phenyl]-2-oxo-1,2-dihydropyridine-3-carboxylic acid]	< 1	3.5 to 12.5 (≈ 10.7 to 38.1 µM)	12.5 to 150 (≈ 38.1 to 457 µM)	12.5 to 150 (≈ 38.1 to 457 µM)	12.5 to 150 (≈ 38.1 to 457 µM)	12.5 to 150 (≈ 38.1 to 457 µM)	12.5 to 150 (≈ 38.1 to 457 µM)	< 1	< 1	< 1	–	–
CCc1cc(C(=O)O)c(=O)[nH]c1-c1ccc(N2CCC[C@@H]2C(F)(F)F)cc1 [Cpd 141, 5-ethyl-2-oxo-6-{4-[(2R)-2-(trifluoromethyl)pyrrolidin-1-yl]phenyl}-1,2-dihydropyridine-3-carboxylic acid]	< 1	12.5 to 150 (≈ 32.9 to 394 µM)	3.5 to 12.5 (≈ 9.2 to 32.9 µM)	12.5 to 150 (≈ 32.9 to 394 µM)	12.5 to 150 (≈ 32.9 to 394 µM)	12.5 to 150 (≈ 32.9 to 394 µM)	12.5 to 150 (≈ 32.9 to 394 µM)	< 1	< 1	< 1	–	–
CCc1cc(C(=O)O)c(=O)[nH]c1-c1ccc(N2CCC(OCc3ccccc3)C2)cc1 (centres unmarked) [Cpd 128, 6-{4-[3-(benzyloxy)pyrrolidin-1-yl]phenyl}-5-ethyl-2-oxo-1,2-dihydropyridine-3-carboxylic acid]	< 1	12.5 to 150 (≈ 29.9 to 358 µM)	1 to 3.5 (≈ 2.39 to 8.36 µM)	12.5 to 150 (≈ 29.9 to 358 µM)	12.5 to 150 (≈ 29.9 to 358 µM)	12.5 to 150 (≈ 29.9 to 358 µM)	12.5 to 150 (≈ 29.9 to 358 µM)	1 to 3.5 (≈ 2.39 to 8.36 µM)	< 1	< 1	–	–
CN(C)c1ccc(-c2ccc(C(=O)O)c(=O)[nH]2)cc1 [Cpd 310, 6-[4-(dimethylamino)phenyl]-2-oxo-1,2-dihydropyridine-3-carboxylic acid]	12.5 to 150 (≈ 48.4 to 581 µM)	12.5 to 150 (≈ 48.4 to 581 µM)	12.5 to 150 (≈ 48.4 to 581 µM)	12.5 to 150 (≈ 48.4 to 581 µM)	12.5 to 150 (≈ 48.4 to 581 µM)	12.5 to 150 (≈ 48.4 to 581 µM)	12.5 to 150 (≈ 48.4 to 581 µM)	–	12.5 to 150 (≈ 48.4 to 581 µM)	–	–	12.5 to 150 (≈ 48.4 to 581 µM)
CCc1c(-c2ccc(N3C[C@@H]4[C@H](C3)[C@H]4N(C)C)cc2)[nH]c(=O)c(C(=O)O)c1O [Cpd 271, 6-{4-[(1R,5S,6s)-6-(dimethylamino)-3-azabicyclo[3.1.0]hex-3-yl]phenyl}-5-ethyl-4-hydroxy-2-oxo-1,2-dihydropyridine-3-carboxylic acid hydrochloride]	< 1	3.5 to 12.5	12.5 to 150	3.5 to 12.5	12.5 to 150	3.5 to 12.5	12.5 to 150	–	–	–	–	12.5 to 150
CCc1c(-c2ccc(N3CC=CC3)cc2)[nH]c(=O)c(C(=O)O)c1O [Cpd 302, 6-[4-(2,5-dihydro-1H-pyrrol-1-yl)phenyl]-5-ethyl-4-hydroxy-2-oxo-1,2-dihydropyridine-3-carboxylic acid]	< 1	1 to 3.5 (≈ 3.06 to 10.7 µM)	< 1	12.5 to 150 (≈ 38.3 to 460 µM)	12.5 to 150 (≈ 38.3 to 460 µM)	12.5 to 150 (≈ 38.3 to 460 µM)	3.5 to 12.5 (≈ 10.7 to 38.3 µM)	< 1	< 1	< 1	–	–
CC(C)c1c(-c2ccc(N(C)C)cc2)[nH]c(=O)c(C(=O)O)c1O [Cpd 96, 6-[4-(dimethylamino)phenyl]-4-hydroxy-2-oxo-5-(propan-2-yl)-1,2-dihydropyridine-3-carboxylic acid]	< 1	3.5 to 12.5 (≈ 11.1 to 39.5 µM)	3.5 to 12.5 (≈ 11.1 to 39.5 µM)	12.5 to 150 (≈ 39.5 to 474 µM)	12.5 to 150 (≈ 39.5 to 474 µM)	12.5 to 150 (≈ 39.5 to 474 µM)	12.5 to 150 (≈ 39.5 to 474 µM)	< 1	< 1	< 1	–	–
CCc1c(-c2ccc(N3C[C@@H](O)[C@@H](O)C3)cc2)[nH]c(=O)c(C(=O)O)c1O [Cpd 304, 6-{4-[(3R,4S)-3,4-dihydroxypyrrolidin-1-yl]phenyl}-5-ethyl-4-hydroxy-2-oxo-1,2-dihydropyridine-3-carboxylic acid]	< 1	3.5 to 12.5 (≈ 9.71 to 34.7 µM)	3.5 to 12.5 (≈ 9.71 to 34.7 µM)	12.5 to 150 (≈ 34.7 to 416 µM)	12.5 to 150 (≈ 34.7 to 416 µM)	12.5 to 150 (≈ 34.7 to 416 µM)	12.5 to 150 (≈ 34.7 to 416 µM)	< 1	< 1	< 1	–	–
CCCc1cc(C(=O)O)c(=O)[nH]c1-c1ccc(N(C)C)cc1 [Cpd 8, 6-[4-(dimethylamino)phenyl]-2-oxo-5-propyl-1,2-dihydropyridine-3-carboxylic acid]	< 1	3.5 to 12.5 (≈ 11.7 to 41.6 µM)	12.5 to 150 (≈ 41.6 to 499 µM)	12.5 to 150 (≈ 41.6 to 499 µM)	12.5 to 150 (≈ 41.6 to 499 µM)	12.5 to 150 (≈ 41.6 to 499 µM)	12.5 to 150 (≈ 41.6 to 499 µM)	< 1	< 1	< 1	–	–
